# Assay results published in patent EP1477168A1, “Use of cabergoline in the treatment of restless leg syndrome” (priority 1998, dated 1999).
# Structures can show the parent of a compound that is named as a salt.
# Assays:
# [1] = tested on: RLS; details: treatment of RLS; quote from www.rls.org, March 1999; cited from earlier work
# [2] = tested on: RLS; details: cited from earlier work
# [3] = tested on: restless legs syndrome and periodic leg movements in sleep; details: cited from earlier work; for patients who responded: consecutive series of patients
# [4] = tested on: restless leg syndrome; details: in vivo; cited from earlier work
# [5] = tested on: restless legs syndrome; assay: 12-week open label pilot trial of cabergoline in RLS patients: polysomnography; format: in vivo
# Method: In a 12-week open label pilot trial, the effects of a single evening cabergoline-dose on symptoms of RLS were investigated in 9 patients and the results presented here. See also, Stiasny K., Oertel W.H., Schüler P. (1998). Cabergoline in RLS, ENS, Nice, Abstract.
# Efficacy was assessed by polysomnography and subjective ratings. All patients previously had experienced partial benefit of a levodopa therapy (either standard or standard and slow release) and in part developed augmentation under levodopa therapy. At study entry all patients were comedicated with domperidone (20 mg TID) and five were still under levodopa therapy (400-800 mg). At the endpoint all patients were on cabergoline monotherapy (mean dose 2.1 mg, range 1 to 4 mg). Domperidone was stopped in all patients due to excellent tolerability. […] Total sleep time was prolonged, sleep latency shortened and sleep efficiency increased. All patients reported significant relief or became free of RLS symptoms.
# (§1) Following a 2-week baseline period, all patients were treated with cabergoline in an open trial for 12 weeks. Apart from levodopa, patients had to stop taking any medication known to have positive or negative effect on RLS two weeks before baseline (i.e., other dopamine agonists, benzodiazepines, opioids or other psychotropic agents). Patients who were on levodopa therapy were allowed to either stop levodopa prior to study entry or to continue, taper or discontinue levodopa during the study. To prevent well known peripheral dopaminergic side-effects such as nausea, vomiting, vertigo and arterial hypotension domperidone (not available in the United States) was comedicated initially and also tapered if possible. […] Neurological case history, examination, electrocardiogramm, chest x-ray and polysomnography were performed to ensure that selection criteria were fulfilled. A two-night PSG (including one night of adaptation) was performed to evaluate the diagnosis and inclusion/exclusion criteria regardless if patients were on or off levodopa. After a 12-week treatment period patients were studied again for one night in the sleep laboratory. Subjective ratings were obtained at baseline, week 4, week 8 and at the endpoint after 12 weeks. In addition patients were monitored by phone calls to note any adverse events and to determine whether to increase the dosage of the study drug, to decrease levodopa and to decrease domperidone. The time schedule of phone calls was variable and the frequency mostly dependent on the presence of simultaneous levodopa therapy.
# Inclusion criteria. Patients were included if they fulfilled the minimal diagnostic criteria according to the International RLS Study Group. After rating clinical symptoms at baseline, patients were referred to polysomnography without any RLS specific treatment other than levodopa. Patients were included if they had more than five PLM per hour of time-in-bed (PLM index) and a sleep efficiency index (total sleep time per hour time-in-bed) of less than 85%.
# Exclusion criteria. Patients with signs of any other sleep disorder on PSG, especially sleep apnea syndrome (respiratory disturbances index > 5 per hour total sleep time), were excluded. Subjects receiving neuroleptic, antidepressant or other psychotropic medications or with any severe additional illness (with special consideration to pulmonary fibrosis) or drug abuse were also excluded. […]
# [6] = tested on: restless legs syndrome; assay: 12-week open label pilot trial: patients' subjective ratings and sleep diaries; format: in vivo
# Method: as §1
# Dosing. Study medication was available in tablets containing 0.5 mg, 1 mg or 2 mg Cabergoline (Cabaseril®, Pharmacia & Upjohn, Erlangen, Germany). Medication was taken 2 hours prior to bedtime. Initial therapy consisted of one 0.5 mg tablet. […] The increased dose could be decreased again if necessary. All patients were initially comedicated with domperidone 20 mg t.i.d. which could be tapered and stopped if possible. Subjects who were pretreated with levodopa were asked to decrease levodopa simultaneously if possible.
# Subjective ratings. After each night of recording and at each visit at week 2 and 4, patients rated the severity of illness (normal to extremely ill), the therapeutic effects by rating their global improvements by use of the Patients Global Impressions (general condition very much worse to very much better), the severity of RLS symptoms during the time of falling asleep, during the night and during the day (scale: 0 = not present to 10 = very strong) and sleep satisfaction (very unsatisfied to very satisfied). In addition patients rated their quality of life, concerning well being and complaints during the previous week, using modified 50-mm Hamburger Visual Analogue Scale. Patients also filled in a sleep diary at each study visit rating the following symptoms: global assessment of sleep (very bad to very good night), sleep latency, sleep time, frequency of awakenings and urge to move the legs at time falling asleep, during the night and during the day (scale: 0 = not present to 10 = very strong).
# [7] = tested on: restless legs syndrome; assay: 12-week open label pilot trial: physician's rating (Clinical Global Impressions); format: in vivo; details: under cabergoline, 9 patients
# Method: as §1, with “Subjective ratings were obtained at baseline, week 4, week 8 and at the endpoint after 12 weeks.” left out, “The time schedule of phone calls was variable and the frequency mostly dependent on the presence of simultaneous levodopa therapy.” left out
# [8] = tested on: restless legs syndrome; assay: 12-week open label pilot trial: safety and augmentation; format: in vivo, patients
# Method: as §1
# Safety. Safety of Cabergoline was assessed to the type and frequency of adverse event, clinically significant changes in laboratory data or ECG and premature discontinuation of study participation. Adverse events were classified as serious versus nonserious and characterized by intensity, relationship to drug treatment, frequency, course and therapeutic intervention.
# [9] = Half-life and duration of action; format: in vivo; details: as stated by the applicant, no method given
smiles,measurement,setting,value
"CCCN1C[C@H](CSC)C[C@@H]2c3cccc4[nH]cc(c34)C[C@H]21 [Permax®, pergolide mesylate]",people who develop augmentation,[1],10%
N[C@@H](Cc1ccc(O)c(O)c1)C(=O)O [L-dopa],RLS patients with augmentation who required a medication change,"[2]; Allen, Earley, Sleep 1996",50%
same,augmentation in PLMS patients,"[2]; Allen, Earley, Sleep 1996",31%
same,augmentation in RLS patients,"[2]; Allen, Earley, Sleep 1996",82%
same,RLS patients with augmentation reporting 3 major symptoms of increased severity,[2]; of the 22 RLS patients with augmentation,100%
same,patients who responded,[3],21 of 51
CC(C)C[C@H]1C(=O)N2CCC[C@H]2[C@]2(O)O[C@](NC(=O)[C@@H]3C=C4c5cccc6[nH]c(Br)c(c56)C[C@H]4N(C)C3)(C(C)C)C(=O)N12 [Bromocriptine],patients reporting better subjective improvement in restlessness and paresthesia compared to placebo,[4],5 of 6
same,side effects reported,[4],transient nasal stuffiness and lightheadedness in one patient
"C=CCN1C[C@H](C(=O)N(CCCN(C)C)C(=O)NCC)C[C@@H]2c3cccc4[nH]cc(c34)C[C@H]21 [cabergoline, 1((6-allylergolin-8β-yl) -carbony.)-1-(3-(dimethylamino)propyl)-3-ethylurea]",PLM arousal,"[5]; Week 12, baseline 51.7 ± 42.3",6.4 ± 11.2
same,PLM arousal index,"[5]; number of PLM arousals per hour total sleep time, Week 12, baseline 10.4 ± 7.8",1.0 ± 1.7
same,PLM awakening,"[5]; number of PLM awakenings, Week 12, baseline 9.6 ± 4.9",1.0 ± 2.0
same,PLM index,"[5]; number of PLM per hour time in bed, Week 12, baseline 27.7 ± 17.1",3.6 ± 5.3
same,No. Of PLM,"[5]; total number of PLM during time in bed, Week 12, cabergoline monotherapy, baseline 195.8 ± 109.1",26.4 ± 40.2
same,relief of RLS symptoms reported by patients,"[6]; 12 weeks, 9 patients",All patients reported a significant relief or became free of RLS symptoms
same,severity of illness in PGI (number of patients),"[6]; cabergoline monotherapy, 9 patients, baseline extremely (2), very (4) or markedly (3) ill","normal (5) or borderline (2) in PGI, only two as moderately ill"
same,quality of life (Hamburger Visual Analogue Scales),[6]; compared with baseline,much better than under baseline conditions
same,sleep satisfaction (number of patients),"[6]; endpoint, 9 patients, baseline very (1), markedly (6) or moderately (2) unsatisfied","2 were very, 4 markedly, 1 moderately satisfied and only 2 moderately unsatisfied"
same,had to get up,"[6]; sleep diaries, cabergoline monotherapy, baseline 2.1",0.6 times per night
same,General condition in PGI (number of patients),"[6]; under cabergoline, 9 patients",very much better (6) or much better (3)
same,global quality of the previous night (sleep diaries),"[6]; zero (very bad) to 10 (very good) scale, endpoint, baseline 3.1",6.9
same,"Physician's rating of general condition (global improvement, number of patients)",[7],"very much better in 5, much better in 3 and minimally better in 1 patients"
same,augmentation under cabergoline,[8]; 12-week treatment period,we did not observe augmentation in our patients
same,laboratory data and ECG,[8]; 12 weeks,No significant changes
same,"adverse events probably related to the study drug, total","[8]; 12 weeks, 9 patients",8
same,serious side effects and withdrawals,"[8]; 12 weeks, 9 patients",no serious side effects and no patient withdrew from the study
same,patients reporting adverse events probably related to the study drug,[8]; of 9 patients,5 patients
same,reversibility of augmentation evoked by levodopa,[8]; patients who had developed augmentation under levodopa,reversible under cabergoline in all of our patients
same,half life,[9],> 65 h
same,half-life,"[9]; human, in vivo",65 h
CCCN1C[C@H](CSC)C[C@@H]2c3cccc4[nH]cc(c34)C[C@H]21 [Pergolide],patients who responded,[3],19 of 26
same,patients who suffered from augmentation,[3]; patients treated with pergolide,15%
same,patients who had augmentation,[3]; pergolide patients,4 of 26
